Legend:
MCF7 [1] = experiment: Inhibition of starvation-induced autophagy in human MCF7 cells expressing eGFP-tagged LC3; assay type: functional, cell-based
MCF7 [2] = experiment: Inhibition of rapamycin-induced autophagy in human MCF7 cells expressing eGFP-tagged LC3; assay type: functional, cell-based
[3] = target: T1, Phosphatidylinositol 3-kinase catalytic subunit type 3 (Homo sapiens, UniProt Q8NEB9); experiment: Inhibition of VPS34 (unknown origin) by ADP hunter plus assay
[4] = target: T1, Phosphatidylinositol 3-kinase catalytic subunit type 3; experiment: Binding affinity to VPS34 (unknown origin) assessed as dissociation constant by KINOMEscan analysis

T1 sequence (Q8NEB9 whole entry): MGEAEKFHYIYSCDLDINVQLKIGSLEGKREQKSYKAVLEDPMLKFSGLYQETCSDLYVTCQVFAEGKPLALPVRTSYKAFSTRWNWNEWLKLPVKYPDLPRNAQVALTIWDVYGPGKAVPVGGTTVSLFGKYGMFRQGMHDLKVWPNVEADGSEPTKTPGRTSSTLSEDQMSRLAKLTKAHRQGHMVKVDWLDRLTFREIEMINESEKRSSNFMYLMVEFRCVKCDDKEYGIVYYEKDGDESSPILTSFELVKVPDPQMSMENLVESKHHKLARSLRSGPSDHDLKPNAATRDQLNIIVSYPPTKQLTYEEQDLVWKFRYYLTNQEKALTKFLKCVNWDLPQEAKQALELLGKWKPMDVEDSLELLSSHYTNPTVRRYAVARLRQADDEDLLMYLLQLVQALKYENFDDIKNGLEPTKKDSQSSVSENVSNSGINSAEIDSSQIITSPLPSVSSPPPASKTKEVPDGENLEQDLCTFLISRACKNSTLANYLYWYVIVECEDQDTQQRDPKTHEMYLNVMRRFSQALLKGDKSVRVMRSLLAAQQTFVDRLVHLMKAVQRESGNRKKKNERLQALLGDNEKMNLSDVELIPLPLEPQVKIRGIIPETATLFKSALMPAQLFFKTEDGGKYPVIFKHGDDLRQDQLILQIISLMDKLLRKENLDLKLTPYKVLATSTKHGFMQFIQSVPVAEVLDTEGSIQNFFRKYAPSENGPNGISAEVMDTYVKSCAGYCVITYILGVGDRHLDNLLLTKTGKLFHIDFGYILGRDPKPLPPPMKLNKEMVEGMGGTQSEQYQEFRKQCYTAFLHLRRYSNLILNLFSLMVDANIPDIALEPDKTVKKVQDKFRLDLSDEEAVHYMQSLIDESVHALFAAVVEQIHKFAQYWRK

| Structure (SMILES) | IC50 (MCF7 [1]) | IC50 [3] | also measured |
| --- | --- | --- | --- |
| COc1ccc2nccc([C@@H](O)[C@@H]3C[C@@H]4CCN3c3c4[nH]c4nc(C)c(Br)cc34)c2c1 | 40 nM | – | IC50 (MCF7 [2]): 8 nM |
| O=C1Nc2ccc(-c3cccnc3)cc2C1=Cc1cc(Br)c(O)c(Br)c1 | – | 151 nM | – |
| O=S(=O)(c1ccc(-c2ccnc3[nH]ccc23)cc1)C1CCCC1 | – | 1510 nM | – |
| COc1ccc2nccc([C@@H](O)[C@@H]3C[C@@H]4CCN3c3c4[nH]c4nc(C(F)(F)F)ccc34)c2c1 | 5820 nM | – | – |
| O=c1cc(N2CCOCC2)nc2n(Cc3cccc(Cl)c3Cl)c(C3CC3)nn12 | – | 9.12 nM | – |
| COc1ccc2nccc([C@@H](O)[C@@H]3C[C@@H]4CCN3c3c4[nH]c4nc(Cl)ccc34)c2c1 | 8120 nM | – | – |
| C[C@@H]1COCCN1c1cc(N2CCCC[C@@H]2C(F)(F)F)[nH]c(=O)c1 | – | – | Kd [4]: 1 nM |

Reference: ChEMBL document CHEMBL5370541, “Targeting VPS34 in autophagy: An update on pharmacological small-molecule compounds” (Eur J Med Chem, 2023)
